Laboratory results published in patent US12673942B2, “Azabicyclyl-substituted heterocycles as fungicides” (Bayer Aktiengesellschaft, priority 2020, dated 2026).

Experiment: Measurement of Log P values by HPLC on reversed phase columns (EEC directive 79/831 Annex V.A8)
Assay type: physicochemical
Settings: method [a]: LC-UV, acidic range, 0.1% formic acid in water and acetonitrile as eluent
Protocol: Measurement of Log P values as provided herein was performed according to EEC directive 79/831 Annex V.A8 by HPLC (High Performance Liquid Chromatography) on reversed phase columns with the following methods: • ^[a] Log P value is determined by measurement of LC-UV, in an acidic range, with 0.1% formic acid in water and acetonitrile as eluent (linear gradient from 10% acetonitrile to 95% acetonitrile). • ^[b] Log P value is determined by measurement of LC-UV, in a neutral range, with 0.001 molar ammonium acetate solution in water and acetonitrile as eluent (linear gradient from 10% acetonitrile to 95% acetonitrile). • ^[c] Log P value is determined by measurement of LC-UV, in an acidic range, with 0.1% phosphoric acid and acetonitrile as eluent (linear gradient from 10% acetonitrile to 95% acetonitrile).
If more than one Log P value is available within the same method, all the values are given and separated by “+”. […]

Row | SMILES | chromatographic logP
1 | Cc1ccc(C[C@H](CON2C(=O)c3ccccc3C2=O)NC(=O)c2c(Oc3cccc(Br)c3F)cnc3ccccc23)c(C)c1 (racemic) [Compound 3-06] | 4.78
2 | Cc1ccc(C[C@H](CON)NC(=O)c2c(Oc3cccc(Br)c3F)cnc3ccccc23)c(C)c1 (racemic) [Compound 4-07] | 3.11
3 | Cc1ccc(C[C@@H]2CON=C(c3c(Oc4cccc(C5CC5)c4F)cnc4ccccc34)N2)c(Cl)c1 (racemic) [Compound I-021] | 4.55
4 | Cc1ccc(C[C@H](CON2C(=O)c3ccccc3C2=O)NC(=O)c2c(Oc3cccc(Cl)c3F)nnc3c2CCCC3)c(C)c1 (racemic) [Compound 3-10] | 4.47
5 | Cc1ccc(C[C@H](CON)NC(=O)c2c(Oc3cccc(Br)c3F)nnc3c2CCCC3)c(C)c1 (racemic) [Compound 4-12] | 2.75
6 | CCOC(=O)c1c(Oc2cccc(C(F)(F)F)c2)nnc2c1CCC2 [Compound 1-22] | 3.5
7 | Cc1ccc(C[C@H](CON2C(=O)c3ccccc3C2=O)NC(=O)c2c(Oc3cccc(C(F)F)c3)nnc3c2CCCC3)c(C)c1 (racemic) [Compound 3-13] | 4.13
8 | Cc1ccc(C[C@H](CON)NC(=O)c2c(Oc3cccc(C(F)(F)F)c3)nnc3c2CCC3)c(C)c1 (racemic) [Compound 4-13] | 2.78
9 | C#Cc1cccc(Oc2cnc3ccccc3c2C(=O)N[C@@H](CON)Cc2ccc(C)cc2C)c1 (racemic) [Compound 4-04] | 2.83
10 | Cc1ccc(CC(CON)NC(=O)c2c(Oc3cccc(Cl)c3)nnc3ccccc23)c(C)c1 (racemic) [Compound 4-03, N-[(2RS)-1-(aminooxy)-3-(2,4-dimethylphenyl)propan-2-yl]-3-(3-chloro-phenoxy)cinnoline-4-carboxamide] | 2.8
11 | Cc1ccc(C[C@@H]2CON=C(c3c(Oc4cccc(Br)c4F)nnc4c3CCCC4)N2)c(C)c1 (racemic) [Compound I-024] | 4.01
12 | Cc1ccc(C[C@H](CON)NC(=O)c2c(Oc3cccc(Cl)c3F)nnc3c2CCCC3)c(C)c1 (racemic) [Compound 4-11] | 2.7
13 | Cc1ccc(CC(CCl)NC(=O)c2c(Oc3cccc(C4CC4)c3F)nnc3ccccc23)c(C)c1 (racemic) [Compound 10-01, N-[(2RS)-1-chloro-3-(2,4-dimethylphenyl)propan-2-yl]-3-(3-cyclopropyl-2-fluorophenoxy)cinnoline-4-carboxamide] | 4.73
14 | Cc1ccc(C[C@H](CON)NC(=O)c2c(Oc3cccc(C(F)F)c3)nnc3c2CCCC3)c(C)c1 (racemic) [Compound 4-14] | 2.55
15 | Cc1ccc(C[C@H](CCl)NC(=NO)c2c(Br)cnc3nccnc23)c(C)c1 (racemic) [Compound 15-01] | 2.73
16 | C=Cc1cccc(Oc2cnc3ccccc3c2C2=NOC[C@@H](Cc3ccc(C)cc3Cl)N2)c1 (racemic) [Compound I-026] | 4.19
17 | Cc1ccc(C[C@@H]2CON=C(c3c(Oc4cccc(C5CC5)c4F)nnc4c3CCC4)N2)c(C)c1 (racemic) [Compound I-029] | 4.13
18 | Cc1ccc(C[C@H](CCl)NC(=NO)c2c(Oc3cccc(C(F)(F)F)c3)cnc3ccoc23)c(C)c1 (racemic) [Compound 12-05] | 4.4
19 | C=Cc1cccc(Oc2cnc3ccccc3c2C(=O)N[C@@H](CON)Cc2ccc(C)cc2Cl)c1 (racemic) [Compound 4-09] | 3.12
20 | Cc1ccc(C[C@H](CCl)N/C(=N\O)c2c(Oc3cccc(C4CC4)c3F)nnc3ccccc23)c(C)c1 (racemic) [Compound 12-01, N-[(2RS)-1-chloro-3-(2,4-dimethylphenyl)propan-2-yl]-3-(3-cyclopropyl-2-fluorophenoxy)-N′-hydroxycinnoline-4-carboximidamide] | 4.7
21 | Cc1ccc(C[C@@H]2CON=C(c3c(Oc4cccc(C(F)(F)F)c4)nnc4c3CCCC4)N2)c(C)c1 (racemic) [Compound I-022] | 3.99
22 | Cc1ccc(C[C@@H]2CON=C(c3c(Oc4cccc(Br)c4F)cnc4ccccc34)N2)c(Cl)c1 (racemic) [Compound I-030] | 4.37
23 | C#Cc1cccc(Oc2cnc3ccccc3c2C(=O)N[C@@H](CON2C(=O)c3ccccc3C2=O)Cc2ccc(C)cc2Cl)c1 (racemic) [Compound 3-07] | 4.47
24 | Cc1ccc(C[C@H](CON2C(=O)c3ccccc3C2=O)NC(=O)c2c(Oc3cccc(C(F)(F)F)c3)nnc3c2CCCC3)c(C)c1 (racemic) [Compound 3-09] | 4.59
25 | Cc1ccc(C[C@H](CON)NC(=O)c2c(Oc3cccc(C4CC4)c3F)cnc3ccccc23)c(C)c1 (racemic) [Compound 4-05] | 3.31
26 | Cc1ccc(C[C@@H]2CON=C(c3c(Oc4cccc(C)c4F)cnc4ccccc34)N2)c(C)c1 (racemic) [Compound I-020] | 4.15

Row | SMILES | chromatographic logP
27 | C#Cc1cccc(Oc2cnc3ccccc3c2C2=NOC[C@@H](Cc3ccc(C)cc3Cl)N2)c1 (racemic) [Compound I-025] | 3.91
28 | Cc1ccc(C[C@H](CON2C(=O)c3ccccc3C2=O)NC(=O)c2c(Oc3cccc(C4CC4)c3F)nnc3c2CCC3)c(C)c1 (racemic) [Compound 3-14] | 4.56
29 | Cc1ccc(C[C@@H]2CON=C(c3c(Br)cnc4nccnc34)N2)c(C)c1 (racemic) [Compound 7-01] | 2.41
30 | Cc1ccc(C[C@H](CCl)NC(=NO)c2c(Oc3cccc(Br)c3F)cnc3ccccc23)c(Cl)c1 (racemic) [Compound 12-03] | 4.62
31 | N[C@H](CCl)Cc1ccc(Br)cc1Cl (racemic) [Compound 9-03] | 1.37
32 | Cc1ccc(C[C@H](CCl)NC(=O)c2c(Oc3cccc(Br)c3F)cnc3ccccc23)c(Cl)c1 (racemic) [Compound 10-04] | 4.7
33 | C#Cc1cccc(Oc2cnc3ccccc3c2C(=O)N[C@@H](CON)Cc2ccc(C)cc2Cl)c1 (racemic) [Compound 4-08] | 2.87
34 | Cc1ccc(C[C@H](CCl)NC(=O)c2c(Br)cnc3nccnc23)c(C)c1 (racemic) [Compound 14-01] | 2.97
35 | Cc1ccc(C[C@H](CON)NC(=O)c2c(Oc3cccc(C4CC4)c3F)nnc3c2CCC3)c(C)c1 (racemic) [Compound 4-15] | 2.83
36 | Cc1ccc(C[C@H](CON2C(=O)c3ccccc3C2=O)NC(=O)c2c(Oc3cccc(C4CC4)c3F)cnc3ccccc23)c(C)c1 (racemic) [Compound 3-04] | 4.96
37 | C#Cc1cccc(Oc2cnc3ccccc3c2C(=O)N[C@@H](CON2C(=O)c3ccccc3C2=O)Cc2ccc(C)cc2C)c1 (racemic) [Compound 3-03] | 4.44
38 | Cc1ccc(C[C@H](CCl)NC(=O)c2c(Oc3cccc(C(F)F)c3)cnc3ccccc23)c(Cl)c1 (racemic) [Compound 10-05] | 4.33
39 | Cc1ccc(C[C@@H]2CON=C(c3c(Oc4cccc(Cl)c4F)nnc4c3CCCC4)N2)c(C)c1 (racemic) [Compound I-023] | 3.91
40 | C=Cc1cccc(Oc2cnc3ccccc3c2C(=O)N[C@@H](CON2C(=O)c3ccccc3C2=O)Cc2ccc(C)cc2Cl)c1 (racemic) [Compound 3-08] | 4.71
41 | Cc1ccc(CC(CON2C(=O)c3ccccc3C2=O)NC(=O)c2c(Oc3cccc(Cl)c3)nnc3ccccc23)c(C)c1 (racemic) [Compound 3-01, 3-(3-chlorophenoxy)-N-{(2RS)-1-(2,4-dimethylphenyl)-3-[(1,3-dioxo-1,3-dihydro-2H-isoindol-2-yl)oxy]propan-2-yl}cinnoline-4-carboxamide] | 4.49
42 | O=C(O)c1c(Oc2cccc(C(F)(F)F)c2)nnc2c1CCC2 [Compound 1-23] | 1.75
43 | Cc1ccc(C[C@H](CON2C(=O)c3ccccc3C2=O)NC(=O)c2c(Oc3cccc(C(F)(F)F)c3)cnc3ccccc23)c(C)c1 (racemic) [Compound 3-02] | 4.72
44 | Cc1ccc(C[C@H](CCl)NC(=O)c2c(Oc3cccc(C(F)(F)F)c3)cnc3ccoc23)c(C)c1 (racemic) [Compound 10-06] | 4.55
45 | C=Cc1cccc(Oc2cnc3ccccc3c2C(=O)N[C@@H](CON2C(=O)c3ccccc3C2=O)Cc2ccc(C)cc2C)c1 (racemic) [Compound 3-05] | 4.78
46 | Cc1ccc(C[C@H](CCl)NC(=NO)c2c(Oc3cccc(C4CC4)c3F)cnc3ccccc23)c(Cl)c1 (racemic) [Compound 12-02] | 4.93
47 | Cc1ccc(C[C@H](N)CCl)c(C)c1 (racemic) [Compound 9-02] | 1.24
48 | Cc1ccc(C[C@H](CON2C(=O)c3ccccc3C2=O)NC(=O)c2c(Oc3cccc(Br)c3F)nnc3c2CCCC3)c(C)c1 (racemic) [Compound 3-11] | 4.51
49 | Cc1ccc(C[C@@H]2CON=C(c3c(Oc4cccc(C(F)F)c4)cnc4ccccc34)N2)c(Cl)c1 (racemic) [Compound I-031] | 3.98
50 | Cc1ccc(C[C@H](CON)NC(=O)c2c(Oc3cccc(C(F)(F)F)c3)nnc3c2CCCC3)c(C)c1 (racemic) [Compound 4-10] | 2.91
51 | Cc1ccc(C[C@H](CCl)NC(=NO)c2c(Oc3cccc(C(F)F)c3)cnc3ccccc23)c(Cl)c1 (racemic) [Compound 12-04] | 4.28
52 | Cc1ccc(C[C@@H]2CON=C(c3c(Oc4cccc(C(F)(F)F)c4)nnc4c3CCC4)N2)c(C)c1 (racemic) [Compound I-027] | 3.87

Same assay, conditions: method [b]: LC-UV, neutral range, 0.001 molar ammonium acetate solution in water and acetonitrile as eluent

Row | SMILES | chromatographic logP
53 | CCOC(=O)c1c(Oc2cccc(C(F)(F)F)c2)nnc2c1CCC2 [Compound 1-22] | 3.35
54 | O=C(O)c1c(Oc2cccc(C(F)(F)F)c2)nnc2c1CCC2 [Compound 1-23] | 0.44
